From patent publication US20230257396A1, “MACROCYCLES AND THEIR USE” (BLOSSOMHILL THERAPEUTICS, INC., priority 2020, published 2023)

Legend:
Test in all cases: KINOMEscan kinase binding assay (Eurofins/DiscoveRx), % Ctrl
Settings in all cases: 1 μM
[1] = molecular target: T1, kinases (Homo sapiens, UniProt P00533, L858R)
T1 construct: purchased Eurofins/DiscoveRx; host or cells: E. coli BL21-derived host (T7 phage display) for most kinases; HEK-293 for the rest
Method in brief: (§1)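 Read-out is qPCR of kinase eluted from ligand-coated streptavidin beads after 1 h room-temperature competition with test compound. Values are % Ctrl at the tested concentration, lower meaning tighter binding.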

[2] = molecular target: T2, kinases (Homo sapiens, UniProt P09619)
T2 construct: purchased Eurofins/DiscoveRx; host or cells: E. coli BL21-derived host (T7 phage display) for most kinases; HEK-293 for the rest
Method in brief: as §1

[3] = molecular target: T3, kinases (Homo sapiens, UniProt P00519)
T3 construct: purchased Eurofins/DiscoveRx; host or cells: E. coli BL21-derived host (T7 phage display) for most kinases; HEK-293 for the rest
Method in brief: as §1

[4] = molecular target: T4, kinases (Homo sapiens, UniProt P10721, V559D/V654A)
T4 construct: purchased Eurofins/DiscoveRx; host or cells: E. coli BL21-derived host (T7 phage display) for most kinases; HEK-293 for the rest
Method in brief: as §1

[5] = molecular target: T5, kinases (Homo sapiens, UniProt P07949, M918T)
T5 construct: purchased Eurofins/DiscoveRx; host or cells: E. coli BL21-derived host (T7 phage display) for most kinases; HEK-293 for the rest
Method in brief: as §1

[6] = molecular target: T6, kinases (Homo sapiens, UniProt P00519, H396P)
T6 construct: purchased Eurofins/DiscoveRx; host or cells: E. coli BL21-derived host (T7 phage display) for most kinases; HEK-293 for the rest
Method in brief: as §1

[7] = molecular target: T7, kinases (Homo sapiens, UniProt P00519, F317I)
T7 construct: purchased Eurofins/DiscoveRx; host or cells: E. coli BL21-derived host (T7 phage display) for most kinases; HEK-293 for the rest
Method in brief: as §1

[8] = molecular target: T8, kinases (Homo sapiens, UniProt P07949, V804L)
T8 construct: purchased Eurofins/DiscoveRx; host or cells: E. coli BL21-derived host (T7 phage display) for most kinases; HEK-293 for the rest
Method in brief: as §1

[9] = molecular target: T9, kinases (Homo sapiens, UniProt P00533, L858R/T790M)
T9 construct: purchased Eurofins/DiscoveRx; host or cells: E. coli BL21-derived host (T7 phage display) for most kinases; HEK-293 for the rest
Method in brief: as §1

[10] = molecular target: T10, kinases (Homo sapiens, UniProt P35916)
T10 construct: purchased Eurofins/DiscoveRx; host or cells: E. coli BL21-derived host (T7 phage display) for most kinases; HEK-293 for the rest
Method in brief: as §1

[11] = molecular target: T11, kinases (Homo sapiens, UniProt P10721, L576P)
T11 construct: purchased Eurofins/DiscoveRx; host or cells: E. coli BL21-derived host (T7 phage display) for most kinases; HEK-293 for the rest
Method in brief: as §1

[12] = molecular target: T12, kinases (Homo sapiens, UniProt P36888)
T12 construct: purchased Eurofins/DiscoveRx; host or cells: E. coli BL21-derived host (T7 phage display) for most kinases; HEK-293 for the rest
T12 sequence (P36888 27-993): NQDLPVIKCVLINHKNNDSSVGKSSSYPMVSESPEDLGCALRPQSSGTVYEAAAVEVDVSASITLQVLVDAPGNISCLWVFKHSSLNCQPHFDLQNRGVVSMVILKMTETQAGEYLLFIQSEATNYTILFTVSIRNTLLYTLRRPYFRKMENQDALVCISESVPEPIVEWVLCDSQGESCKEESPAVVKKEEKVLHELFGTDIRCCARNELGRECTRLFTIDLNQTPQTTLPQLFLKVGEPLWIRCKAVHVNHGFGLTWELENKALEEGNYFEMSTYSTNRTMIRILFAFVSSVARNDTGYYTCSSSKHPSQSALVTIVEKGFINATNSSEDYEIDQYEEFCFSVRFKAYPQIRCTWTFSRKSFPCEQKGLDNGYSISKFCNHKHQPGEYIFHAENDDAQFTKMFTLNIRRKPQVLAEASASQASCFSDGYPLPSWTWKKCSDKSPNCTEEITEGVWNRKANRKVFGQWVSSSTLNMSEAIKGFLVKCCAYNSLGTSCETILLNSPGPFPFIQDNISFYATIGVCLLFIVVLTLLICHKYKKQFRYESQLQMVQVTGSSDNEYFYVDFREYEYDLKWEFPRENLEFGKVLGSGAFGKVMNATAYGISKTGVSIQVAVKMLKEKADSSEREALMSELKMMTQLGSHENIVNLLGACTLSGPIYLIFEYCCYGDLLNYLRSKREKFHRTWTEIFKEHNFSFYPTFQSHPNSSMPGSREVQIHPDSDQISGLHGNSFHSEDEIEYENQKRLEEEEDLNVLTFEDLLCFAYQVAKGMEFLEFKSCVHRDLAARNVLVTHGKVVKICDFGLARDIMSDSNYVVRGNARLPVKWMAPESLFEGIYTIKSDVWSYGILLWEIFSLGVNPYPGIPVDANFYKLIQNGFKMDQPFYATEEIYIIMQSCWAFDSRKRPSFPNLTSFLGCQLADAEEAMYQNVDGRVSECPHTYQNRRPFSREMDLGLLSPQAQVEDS
Method in brief: as §1

[13] = molecular target: T13, kinases (Homo sapiens, UniProt P00519, Y253F)
T13 construct: purchased Eurofins/DiscoveRx; host or cells: E. coli BL21-derived host (T7 phage display) for most kinases; HEK-293 for the rest
Method in brief: as §1

[14] = molecular target: T14, kinases (Homo sapiens, UniProt P00533, L861Q)
T14 construct: purchased Eurofins/DiscoveRx; host or cells: E. coli BL21-derived host (T7 phage display) for most kinases; HEK-293 for the rest
Method in brief: as §1

[15] = molecular target: T15, kinases (Homo sapiens, UniProt P00533)
T15 construct: purchased Eurofins/DiscoveRx; host or cells: E. coli BL21-derived host (T7 phage display) for most kinases; HEK-293 for the rest
Method in brief: as §1

[16] = target ABL1(H396P)-nonphosphorylated
[17] = target ABL1(H396P)-phosphorylated
[18] = target ABL1(F317I)-nonphosphorylated
[19] = target ABL1(F317I)-phosphorylated
[20] = target ABL1(Y253F)-phosphorylated

T8 sequence (P07949 29-1114 V804L): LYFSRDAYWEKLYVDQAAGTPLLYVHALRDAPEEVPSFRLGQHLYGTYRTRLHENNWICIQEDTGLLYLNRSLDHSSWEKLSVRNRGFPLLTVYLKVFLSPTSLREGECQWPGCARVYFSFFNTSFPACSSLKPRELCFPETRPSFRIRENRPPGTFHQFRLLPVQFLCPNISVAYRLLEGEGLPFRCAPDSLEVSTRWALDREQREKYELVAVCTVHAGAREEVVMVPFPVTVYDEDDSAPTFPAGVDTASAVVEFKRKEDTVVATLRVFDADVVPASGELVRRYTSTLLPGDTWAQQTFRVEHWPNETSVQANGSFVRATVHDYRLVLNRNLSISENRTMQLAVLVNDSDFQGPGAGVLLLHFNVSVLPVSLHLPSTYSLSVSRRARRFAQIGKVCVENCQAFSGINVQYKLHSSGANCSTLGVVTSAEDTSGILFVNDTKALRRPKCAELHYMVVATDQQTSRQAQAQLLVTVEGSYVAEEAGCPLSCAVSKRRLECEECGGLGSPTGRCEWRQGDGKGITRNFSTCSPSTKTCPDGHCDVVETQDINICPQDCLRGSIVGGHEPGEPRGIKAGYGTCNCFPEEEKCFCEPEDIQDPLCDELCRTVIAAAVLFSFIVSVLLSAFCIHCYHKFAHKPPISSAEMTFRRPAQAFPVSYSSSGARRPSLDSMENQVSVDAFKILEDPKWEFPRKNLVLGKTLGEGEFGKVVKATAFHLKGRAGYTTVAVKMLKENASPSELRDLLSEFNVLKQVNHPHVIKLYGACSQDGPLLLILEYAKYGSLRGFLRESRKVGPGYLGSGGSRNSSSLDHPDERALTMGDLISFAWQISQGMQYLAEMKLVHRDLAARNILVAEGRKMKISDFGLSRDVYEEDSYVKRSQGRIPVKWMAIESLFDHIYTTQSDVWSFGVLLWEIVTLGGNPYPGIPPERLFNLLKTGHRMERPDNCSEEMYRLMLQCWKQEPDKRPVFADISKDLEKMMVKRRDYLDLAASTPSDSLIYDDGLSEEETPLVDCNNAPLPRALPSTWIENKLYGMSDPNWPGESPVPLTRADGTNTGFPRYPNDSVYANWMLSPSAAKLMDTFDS
T2 sequence (P09619 33-1106): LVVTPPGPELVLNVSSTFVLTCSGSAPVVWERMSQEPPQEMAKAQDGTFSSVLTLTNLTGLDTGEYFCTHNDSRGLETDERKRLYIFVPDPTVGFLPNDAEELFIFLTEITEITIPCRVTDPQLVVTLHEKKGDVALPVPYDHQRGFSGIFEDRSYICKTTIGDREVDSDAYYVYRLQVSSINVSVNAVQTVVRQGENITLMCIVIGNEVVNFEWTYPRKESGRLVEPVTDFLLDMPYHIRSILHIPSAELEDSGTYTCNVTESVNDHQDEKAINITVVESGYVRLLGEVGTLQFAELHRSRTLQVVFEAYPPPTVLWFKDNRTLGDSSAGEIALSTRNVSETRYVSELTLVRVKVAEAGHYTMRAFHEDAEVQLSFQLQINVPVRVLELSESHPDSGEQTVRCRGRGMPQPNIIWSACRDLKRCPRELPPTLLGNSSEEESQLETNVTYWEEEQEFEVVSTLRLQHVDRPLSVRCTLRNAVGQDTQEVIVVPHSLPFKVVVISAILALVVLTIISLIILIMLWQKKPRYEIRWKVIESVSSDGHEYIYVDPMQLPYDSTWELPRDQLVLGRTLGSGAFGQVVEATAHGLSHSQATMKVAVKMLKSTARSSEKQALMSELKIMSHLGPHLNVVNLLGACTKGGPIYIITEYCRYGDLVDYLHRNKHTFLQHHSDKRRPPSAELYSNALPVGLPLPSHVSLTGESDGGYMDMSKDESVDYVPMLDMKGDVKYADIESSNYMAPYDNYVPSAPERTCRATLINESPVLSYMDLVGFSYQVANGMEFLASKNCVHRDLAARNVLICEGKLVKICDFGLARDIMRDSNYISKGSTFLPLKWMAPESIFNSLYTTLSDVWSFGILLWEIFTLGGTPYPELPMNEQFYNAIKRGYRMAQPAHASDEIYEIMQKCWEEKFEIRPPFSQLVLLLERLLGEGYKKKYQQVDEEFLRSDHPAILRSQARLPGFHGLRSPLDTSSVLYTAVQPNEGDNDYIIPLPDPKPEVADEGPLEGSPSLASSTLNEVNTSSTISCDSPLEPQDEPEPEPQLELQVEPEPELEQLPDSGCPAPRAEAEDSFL
T5 sequence (P07949 29-1114 M918T): as the sequence (P07949 29-1114 V804L) above, with L776V, M890T counted along it
T10 sequence (P35916 25-1363): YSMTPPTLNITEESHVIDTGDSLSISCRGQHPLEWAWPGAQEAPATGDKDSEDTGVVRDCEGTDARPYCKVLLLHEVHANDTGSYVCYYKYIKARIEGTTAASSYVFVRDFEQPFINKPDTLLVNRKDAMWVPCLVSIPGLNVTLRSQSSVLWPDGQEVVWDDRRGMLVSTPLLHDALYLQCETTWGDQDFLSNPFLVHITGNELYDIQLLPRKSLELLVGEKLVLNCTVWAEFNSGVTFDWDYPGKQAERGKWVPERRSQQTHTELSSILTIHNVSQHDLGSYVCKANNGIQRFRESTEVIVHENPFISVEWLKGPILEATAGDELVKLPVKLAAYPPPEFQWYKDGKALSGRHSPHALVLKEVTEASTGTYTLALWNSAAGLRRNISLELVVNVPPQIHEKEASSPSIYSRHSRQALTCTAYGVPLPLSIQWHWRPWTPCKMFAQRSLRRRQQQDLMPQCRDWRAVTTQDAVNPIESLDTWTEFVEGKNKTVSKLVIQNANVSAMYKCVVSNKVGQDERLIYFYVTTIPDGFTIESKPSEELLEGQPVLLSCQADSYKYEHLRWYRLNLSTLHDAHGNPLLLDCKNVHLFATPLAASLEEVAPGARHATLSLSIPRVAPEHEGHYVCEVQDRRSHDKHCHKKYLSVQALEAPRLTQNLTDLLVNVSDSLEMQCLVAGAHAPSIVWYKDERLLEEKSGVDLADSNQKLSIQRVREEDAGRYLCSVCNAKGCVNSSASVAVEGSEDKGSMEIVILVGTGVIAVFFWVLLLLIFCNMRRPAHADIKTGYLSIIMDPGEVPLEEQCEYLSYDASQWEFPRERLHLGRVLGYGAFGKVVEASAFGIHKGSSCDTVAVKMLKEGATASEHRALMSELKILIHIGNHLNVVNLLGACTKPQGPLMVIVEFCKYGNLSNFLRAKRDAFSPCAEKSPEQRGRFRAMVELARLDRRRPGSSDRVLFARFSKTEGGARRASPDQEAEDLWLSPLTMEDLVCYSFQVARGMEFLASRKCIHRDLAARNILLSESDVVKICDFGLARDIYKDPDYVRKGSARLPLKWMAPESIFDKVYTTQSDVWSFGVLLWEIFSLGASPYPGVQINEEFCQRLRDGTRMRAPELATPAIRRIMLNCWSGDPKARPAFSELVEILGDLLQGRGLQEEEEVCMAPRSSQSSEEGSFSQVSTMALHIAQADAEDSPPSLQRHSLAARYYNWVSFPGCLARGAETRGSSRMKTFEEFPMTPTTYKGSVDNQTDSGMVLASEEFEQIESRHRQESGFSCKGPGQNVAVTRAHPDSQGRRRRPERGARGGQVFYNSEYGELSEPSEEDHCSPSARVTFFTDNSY
T11 sequence (P10721 26-976 L576P): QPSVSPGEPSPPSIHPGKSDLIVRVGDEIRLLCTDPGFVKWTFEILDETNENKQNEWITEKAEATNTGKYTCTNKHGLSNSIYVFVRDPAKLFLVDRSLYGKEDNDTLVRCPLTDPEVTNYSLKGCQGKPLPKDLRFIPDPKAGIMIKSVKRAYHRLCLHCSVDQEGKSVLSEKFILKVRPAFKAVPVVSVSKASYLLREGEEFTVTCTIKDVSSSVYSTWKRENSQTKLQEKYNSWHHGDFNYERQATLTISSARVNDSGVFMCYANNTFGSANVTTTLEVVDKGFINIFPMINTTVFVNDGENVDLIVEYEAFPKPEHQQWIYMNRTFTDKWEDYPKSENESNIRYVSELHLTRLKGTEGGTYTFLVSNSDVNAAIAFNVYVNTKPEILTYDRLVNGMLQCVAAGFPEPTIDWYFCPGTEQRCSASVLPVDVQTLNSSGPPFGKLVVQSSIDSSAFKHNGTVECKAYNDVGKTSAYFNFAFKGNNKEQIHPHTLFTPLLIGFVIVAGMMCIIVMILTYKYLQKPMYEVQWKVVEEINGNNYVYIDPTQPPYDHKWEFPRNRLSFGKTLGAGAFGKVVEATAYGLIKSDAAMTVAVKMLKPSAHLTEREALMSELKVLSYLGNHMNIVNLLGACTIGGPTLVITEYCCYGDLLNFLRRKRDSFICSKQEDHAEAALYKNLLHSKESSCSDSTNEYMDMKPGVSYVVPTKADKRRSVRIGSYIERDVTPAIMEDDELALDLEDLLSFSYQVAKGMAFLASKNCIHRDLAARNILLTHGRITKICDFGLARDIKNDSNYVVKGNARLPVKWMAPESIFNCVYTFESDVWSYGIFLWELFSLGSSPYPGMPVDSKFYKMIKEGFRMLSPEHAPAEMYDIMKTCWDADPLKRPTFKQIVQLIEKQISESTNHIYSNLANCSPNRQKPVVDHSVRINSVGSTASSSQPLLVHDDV
T4 sequence (P10721 26-976 V559D/V654A): as the sequence (P10721 26-976 L576P) above, with V534D, P551L, V629A counted along it

| % Ctrl, EGFR(L858R) ([1]; target EGFR(L858R)) [% Ctrl] | % Ctrl, PDGFRB ([2]; target PDGFRB) [% Ctrl] | % Ctrl, ABL1-nonphosphorylated ([3]; target ABL1-nonphosphorylated) [% Ctrl] | % Ctrl, ABL1-phosphorylated ([3]; target ABL1-phosphorylated) [% Ctrl] | % Ctrl, KIT(V559D, V654A) ([4]; target KIT(V559D, V654A)) [% Ctrl] | % Ctrl, RET(M918T) ([5]; target RET(M918T)) [% Ctrl] | % Ctrl, ABL1(H396P)-nonphosphorylated [6, 16] [% Ctrl] | % Ctrl, ABL1(H396P)-phosphorylated [6, 17] [% Ctrl] | % Ctrl, ABL1(F317I)-nonphosphorylated [7, 18] [% Ctrl] | % Ctrl, ABL1(F317I)-phosphorylated [7, 19] [% Ctrl] | % Ctrl, RET(V804L) ([8]; target RET(V804L)) [% Ctrl] | % Ctrl, EGFR(L858R, T790M) ([9]; target EGFR(L858R, T790M)) [% Ctrl] | % Ctrl, FLT4 ([10]; target FLT4) [% Ctrl] | % Ctrl, KIT(L576P) ([11]; target KIT(L576P)) [% Ctrl] | % Ctrl, FLT3-autoinhibited ([12]; target FLT3-autoinhibited) [% Ctrl] | % Ctrl, FLT3 ([12]; target FLT3) [% Ctrl] | % Ctrl, ABL1(Y253F)-phosphorylated [13, 20] [% Ctrl] | % Ctrl, EGFR(L861Q) ([14]; target EGFR(L861Q)) [% Ctrl] | % Ctrl, EGFR ([15]; target EGFR) [% Ctrl] | Compound | further results |
| --- | --- | --- | --- | --- | --- | --- | --- | --- | --- | --- | --- | --- | --- | --- | --- | --- | --- | --- | --- | --- |
| – | – | – | – | – | – | – | – | – | – | – | – | – | – | – | – | – | – | – | Cc1cc2c([nH]1)/C=C1\C(=O)Nc3ccc(cc31)-c1cnn(C)c1CN(C)CCN(C)C2=O [Ex. 126, [3a(4)Z]-6,9,12,14-tetramethyl-9,10,11,12,13,14-hexahydro-1,17-(ethanediylidene)pyrazolo[4,3-m]dipyrrolo[3,2-f:3′,4′-i][1,4]diazacyclopentadecine-3,8(2H,5H)-dione] | % Ctrl, EGFR(L858R) ([1]; EGFR(L858R)): 31 % Ctrl; % Ctrl, PDGFRB ([2]; PDGFRB): 0 % Ctrl; % Ctrl, ABL1-nonphosphorylated ([3]; ABL1-nonphosphorylated): 0 % Ctrl; % Ctrl, ABL1-phosphorylated ([3]; ABL1-phosphorylated): 0.1 % Ctrl; % Ctrl, KIT(V559D, V654A) ([4]; KIT(V559D, V654A)): 0.4 % Ctrl; % Ctrl, RET(M918T) ([5]; RET(M918T)): 0 % Ctrl; % Ctrl, ABL1(H396P)-nonphosphorylated ([6]; ABL1(H396P)-nonphosphorylated): 0 % Ctrl; % Ctrl, ABL1(H396P)-phosphorylated ([6]; ABL1(H396P)-phosphorylated): 0.1 % Ctrl; % Ctrl, ABL1(F317I)-nonphosphorylated ([7]; ABL1(F317I)-nonphosphorylated): 0 % Ctrl; % Ctrl, ABL1(F317I)-phosphorylated ([7]; ABL1(F317I)-phosphorylated): 0.3 % Ctrl; % Ctrl, RET(V804L) ([8]; RET(V804L)): 0 % Ctrl; % Ctrl, EGFR(L858R, T790M) ([9]; EGFR(L858R, T790M)): 0.15 % Ctrl; % Ctrl, FLT4 ([10]; FLT4): 0 % Ctrl; % Ctrl, KIT(L576P) ([11]; KIT(L576P)): 0 % Ctrl; % Ctrl, FLT3 ([12]; FLT3): 0.2 % Ctrl; % Ctrl, FLT3-autoinhibited ([12]; FLT3-autoinhibited): 0.25 % Ctrl; % Ctrl, ABL1(Y253F)-phosphorylated ([13]; ABL1(Y253F)-phosphorylated): 0.25 % Ctrl; % Ctrl, EGFR(L861Q) ([14]; EGFR(L861Q)): 50 % Ctrl; % Ctrl, EGFR ([15]; EGFR): 23 % Ctrl |
| 78 | 95 | 79 | 100 | 62 | 72 | 69 | 82 | 86 | 100 | 83 | 82 | 97 | 69 | 76 | 77 | 91 | 100 | 76 | Cc1cc2c([nH]1)/C=C1\C(=O)Nc3cc(Cl)c(cc31)OCCO[C@@H](C(=O)N1CCN(C)CC1)CN(C)C2=O [Ex. 138, [7R,16a(17)Z]-19-chloro-2,5-dimethyl-7-(4-methylpipearazine-1-carbonyl)-6,7,9,10-tetrahydro-1H-12,14-(ethanediylidene)dipyrrolo[3,2-i:3′,4′-l][1,4,7]dioxazacyclopentadecine-4,16(5H,15H)-dione] | – |
| 86 | 0.5 | 1.3 | 18 | 13 | 1 | 0.8 | 16 | 20 | 37 | 6.1 | 79 | 11 | 0.1 | 26 | 1.6 | 13 | 43 | 61 | CN1CCSCCOc2cc3c(cc2Cl)NC(=O)/C3=C\c2[nH]ccc2C1=O [Ex. 153] | – |
